Common to all, as to test: NCI anticancer screen, dose series, 48 h
Test [1] relates to K562.
The test system of test [2] is SK-MEL-2.
The test system of test [3] is HOP-62.
In test [4] the test system is SNB-75.
For test [5], the system named is IGROV-1.
The subject of test [6] is HCC 2998.
In test [7] the test system is SW-620.
The test system of test [8] is SN12C.
Test [9] relates to UACC-257.
Test [10] has as its system LOX IMVI.
The subject of test [11] is HL-60.
Test [12] deals with M14.
Test [13] has as its system NCI-H460.
The subject of test [14] is EKVX.
Test [15] concerns MDA-MB-231.
Test [16] concerns HT-29.
In test [17] the test system is SR.
The test system of test [18] is U-251.
Test [19] relates to SF-295.
Test [20] deals with CAKI-1.

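1) Cells in 96-well plates. 2) Compound, 48 h, 5 concentrations. 3) Linear interpolation between surrounding doses. 4) Unreached endpoint = highest concentration. Here, GI50 denotes the concentration required for 50% inhibition of growth.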 Calls of active or inactive are those of the source. Cut-off read from the data, not from the text of the source: active = GI50 up to about 1.1 µM and inactive = higher.

In the case of `O=[N+]([O-])c1cc([As](Br)c2ccc(O)c([N+](=O)[O-])c2)ccc1O`, the GI50 in test [1] is 0.462 µM (active); in [2], 0.746 µM (active); in [3], 1.91 µM (inactive); in [4] it was 1.93 µM (inactive); in test [5] it was 1.47 µM (inactive); in test [6], 1.02 µM (active). Moreover, the GI50 in test [7] was 0.733 µM (active); in test [8], 1.65 µM (inactive); in test [9] it was 1.69 µM (inactive); in test [10], 1.48 µM (inactive); in [11], 1.17 µM (inactive); in test [12], 2.03 µM (inactive). For the same molecule, the GI50 in [13] is 3.12 µM (inactive); in test [14], 1.87 µM (inactive); in test [15], 1.39 µM (inactive); in test [16] it was 3.43 µM (inactive); in test [17] it was 0.383 µM (active); in test [18] it was 1.82 µM (inactive). Also, the GI50 in test [19] was 1.8 µM (inactive); in test [20], 1.7 µM (inactive).

Consider `CS(=O)(=O)OCCN(CCOS(C)(=O)=O)c1ccc(C=O)cc1`, for which the GI50 in [1] is 20.1 µM (inactive); in [2], 17.1 µM (inactive); in test [3], 1.43 µM (inactive); in test [4], 1.87 µM (inactive); in [5], 12.8 µM (inactive); in [6], 2.17 µM (inactive). The GI50 in test [7] is 14.9 µM (inactive); in [8] it was 3.68 µM (inactive); in test [9], 8.32 µM (inactive); in test [10], 5.08 µM (inactive); in [11], 2.07 µM (inactive); in test [12] it was 4.55 µM (inactive). The GI50 in [13] was 0.0518 µM (active); in test [14], 7.05 µM (inactive); in [15], 21.4 µM (inactive); in test [16], 3.96 µM (inactive); in test [17], 0.236 µM (active); in test [18], 8.07 µM (inactive). Moreover, the GI50 in [19] is 0.774 µM (active); in test [20] it was 0.427 µM (active).

Take `c1cc2nsnc2c2c[nH]cc12`: the GI50 was 49.1 µM (inactive) in test [1]; > 100 µM (inactive) in test [2]; > 100 µM (inactive) in test [3]; 50.6 µM (inactive) in [4]; 43.7 µM (inactive) in test [5]; > 100 µM (inactive) in test [6]. Also, the GI50 is > 100 µM (inactive) in test [7]; > 100 µM (inactive) in test [8]; > 100 µM (inactive) in test [9]; > 100 µM (inactive) in [10]; 67.1 µM (inactive) in [11]; 86.3 µM (inactive) in test [13]. Besides, the GI50 is 26.9 µM (inactive) in test [14]; 56.6 µM (inactive) in [15]; > 100 µM (inactive) in [16]; 96.6 µM (inactive) in [17]; > 100 µM (inactive) in [19]; > 100 µM (inactive) in [20].

As for `CCOC(=O)Cn1c(=O)c2cc(-c3ccccc3)cc3c(Cl)nc4c(OC)c(OC)cc1c4c32`, the GI50 is 13.8 µM (inactive) in test [1]; 15 µM (inactive) in [2]; 28.8 µM (inactive) in test [3]; 15.3 µM (inactive) in test [4]; 13 µM (inactive) in [5]; 16.7 µM (inactive) in [6]. Besides, the GI50 is 17.7 µM (inactive) in test [7]; 16.2 µM (inactive) in [8]; 18.6 µM (inactive) in test [9]; 11.6 µM (inactive) in test [10]; 4.89 µM (inactive) in [11]; 15.6 µM (inactive) in test [12]. Moreover, the GI50 in [13] was 17.1 µM (inactive); in test [14], 12.4 µM (inactive); in [15] it was 17.6 µM (inactive); in test [16], 13.8 µM (inactive); in [17], 1.99 µM (inactive); in [18] it was 31.2 µM (inactive). Further, the values for the GI50 in test [19] and in test [20] were 40.7 µM (inactive) and 27.2 µM (inactive), respectively.

For `CC(=O)Nc1cc2ccc(=O)oc2cc1Cl`, the GI50 in [1], in test [2], in test [3], in test [4], in [5] and in test [6] was > 100 µM (inactive) each time. Also, the GI50 in test [7], in test [8], in [9], in test [10], in test [11] and in [12] was > 100 µM (inactive) in each case. The GI50 in test [13], in [14], in [15], in [16], in [17] and in test [18] was > 100 µM (inactive) in each case. The GI50 in [19] and in test [20] was > 100 µM (inactive) each time.

With `C=C1CC[C@@H](CCC2CCC3(OC2)O[C@]2(O)CC[C@@]3(C)OC2(C)C)C(C)(C)[C@H]1C/C=C1\CCOC1=O` (some centres not stated), the GI50 in test [1] is 0.0798 µM (active); in test [2] it was 17.5 µM (inactive); in test [3], 32.1 µM (inactive); in [4] it was 19.6 µM (inactive); in test [5] it was 18.5 µM (inactive); in test [6] it was 10.9 µM (inactive). In addition, the GI50 in test [7] is 33.3 µM (inactive); in test [8], 16.6 µM (inactive); in test [9], 0.507 µM (active); in test [10], 0.131 µM (active); in test [11], 1.36 µM (inactive); in test [12], 17.7 µM (inactive). The GI50 in test [13] is 16.4 µM (inactive); in test [14], 1.11 µM (active); in test [15], 23.6 µM (inactive); in [16] it was 4.93 µM (inactive); in [17] it was 2.67 µM (inactive); in test [18], 15.1 µM (inactive). In addition, the GI50 in [20] is 35.1 µM (inactive).

For `Cc1cc(-c2nc3cc(F)ccc3s2)ccc1NC(=O)[C@@H](N)CCCCN`, the GI50 in [1] is 2.17 µM (inactive); in [2], 2.89 µM (inactive); in test [3], 3.13 µM (inactive); in test [4], 1.82 µM (inactive); in test [5], < 0.0131 µM (active); in test [6], 0.735 µM (active). Further, the GI50 in test [7] was 2.65 µM (inactive); in test [8], 13 µM (inactive); in [9], 5.71 µM (inactive); in test [10] it was 1.82 µM (inactive); in test [11], 2.02 µM (inactive); in [12], 2.14 µM (inactive). Also, the GI50 in test [13] is 0.132 µM (active); in [14] it was 1.87 µM (inactive); in test [15], 2.29 µM (inactive); in test [16] it was 2.82 µM (inactive); in [17] it was 0.802 µM (active); in test [18] it was 1.88 µM (inactive). Besides, the GI50 in test [19] is 2.65 µM (inactive); in test [20] it was 0.647 µM (active).

On to `O=C(CC(=O)c1ccccc1NC1=Cc2ccccc2C(=O)C1=O)C(=O)NC1=C(Cl)C(=O)c2ccccc2C1=O`, for which the GI50 is 1.29 µM (inactive) in test [1]; 2.47 µM (inactive) in test [2]; 4.79 µM (inactive) in test [3]; 1.69 µM (inactive) in [4]; 5.79 µM (inactive) in test [5]; 9.84 µM (inactive) in test [6]. Besides, the GI50 is 2.43 µM (inactive) in [7]; 1.8 µM (inactive) in [8]; 2.04 µM (inactive) in [9]; 1.13 µM (inactive) in [10]; 0.605 µM (active) in test [11]; 1.47 µM (inactive) in test [12]. Also, the GI50 in [13] is 3.04 µM (inactive); in [14], 7.98 µM (inactive); in [15] it was 2.42 µM (inactive); in [16], 5.26 µM (inactive); in test [17] it was 1.44 µM (inactive); in test [18], 3.04 µM (inactive). The GI50 is 3.87 µM (inactive) in test [19] and 8.28 µM (inactive) in test [20].

Consider `CC(=O)OC12c3ccccc3-c3ccccc3C1C(C(=O)O)C2(Cl)C(=O)O` (configuration not stated), for which the GI50 in [1], in [2], in test [3], in [4], in test [5] and in test [6] was > 10 µM (inactive) each time. The GI50 in test [7], in test [8], in test [9], in test [10], in test [11] and in [12] was > 10 µM (inactive) in each case. Moreover, the GI50 in [13], in test [14], in test [15], in test [16], in test [17] and in test [18] was > 10 µM (inactive) in each case. For the same molecule, the GI50 in test [19] and in test [20] was > 10 µM (inactive) in each case.

Regarding `COc1cc(/C=C/C(=O)OCCc2ccccc2)ccc1O`, the GI50 is 20.1 µM (inactive) in test [1]; 21.6 µM (inactive) in [2]; 16.3 µM (inactive) in test [3]; 15.2 µM (inactive) in test [4]; 14.1 µM (inactive) in [5]; 21 µM (inactive) in test [6]. For the same molecule, the GI50 in [7] is 22.2 µM (inactive); in test [8], 19.8 µM (inactive); in test [9] it was 18.1 µM (inactive); in test [10] it was 14.5 µM (inactive); in [11], 0.352 µM (active); in test [12], 15 µM (inactive). Besides, the GI50 in test [13] is 18.6 µM (inactive); in test [14] it was 16.3 µM (inactive); in test [15], 14.2 µM (inactive); in [16], 21.3 µM (inactive); in test [17] it was 24.7 µM (inactive); in test [18], 16 µM (inactive). In addition, the GI50 is 17.3 µM (inactive) in [19] and 15.9 µM (inactive) in test [20].

(Values after ChEMBL document CHEMBL1201862, “PubChem BioAssay data set” (2004).)
